Source: patent US10376520B2, “Methods for the treatment of cardiovascular disorders” (Galapagos NV, priority 2015, dated 2019)

Tested on: Subjects With Active Crohn's Disease
Test: LDL determination, Study 5 (Crohn's disease)
Assay type: in vivo, human
Conditions: for [LDL] Mean CFB - 10 weeks results / [LDL] Median CFB - 10 weeks results / [LDL] Mean CFB: 200 mg q.d.; for [LDL] Mean CFB: Study 5 10 weeks results
Source text: Double-Blind, Randomized, Placebo-Controlled, Multi-Centre Study to Investigate the Efficacy and Safety of Compound 1 in Subjects With Active Crohn's Disease With Evidence of Mucosal Ulceration.
This is a double-blind, randomized, placebo-controlled, multi-centre Phase 2 study to investigate the efficacy and safety of Compound 1 administered once daily for the treatment of active CD with evidence of mucosal ulceration. The pharmacokinetics (including a PK substudy) and pharmacodynamics of Compound 1 and metabolite in CD will also be characterised.
A total of 180 eligible subjects will be randomized to receive Compound 1 or placebo in addition to their stable background treatment (eg, corticosteroids, aminosalicylates, or CD-related antibiotics). The study will consist of 2 parts, with total treatment duration of 20 weeks. Randomization in Part 1 will be stratified according the subject's previous anti-TNF exposure/response, CRP level at Screening, and oral corticosteroid use at visit Day −1.
After the first 10 weeks of treatment in Part 1, patients will be re-randomized for Part 2 as shown in the diagram below and will be stratified according to the subject's clinical response, previous anti-TNF exposure/response, and oral corticosteroid use at visit Day −1.
The following assays were conducted at Eurofins Global Central Laboratory, Bergschot 71, 4817 PA Breda, The Netherlands, and at Quest Diagnostics, Clinical Trials, Quest House, 125-135 Staines Road, Hounslow, Middlesex, TW3 3JB, United Kingdom. The assays for Study 5 were performed at BARC Europe, 3B, Industrie Park, Zwijnaarde, B-9052 Ghent, Belgium.
The determination of [LDL]-cholesterol is made using an automated method taking advantage of the selective micellary solubilization of [LDL]-cholesterol by a nonionic detergent and the interaction of a sugar compound and lipoproteins (VLDL and chylomicrons).
When a detergent is included in the enzymatic method for cholesterol determination (cholesterol esterase, cholesterol oxidase coupling reaction), the relative reactivities of cholesterol in the lipoprotein fractions increase in this order: [HDL]<chylomicrons <VLDL <[LDL]. In the presence of Mg^2+, a sugar compound markedly reduces the enzymatic reaction of the cholesterol measurement in VLDL and chylomicrons. The combination of a sugar compound with detergent enables the selective determination of [LDL]-cholesterol in serum. (Friedewald et al., 1972; Rifai et al., 1992)
Homogeneous enzymatic colorimetric assay.
In the presence of peroxidase, the hydrogen peroxide generated reacts with 4-aminoantipyrine and Sodium N-(2-hydroxy-3-sulfopropyl)-3,5-dimethoxyaniline (HSDA) to form a purple-blue dye.
The color intensity of this dye is directly proportional to the cholesterol concentration and is measured photometrically.
Human serum and plasma samples [LDL] determination was done on a Roche/Hitachi Cobas c 701/702 system which automatically calculate the analyte concentration of each sample. Samples containing precipitates are centrifuged before performing the assay.

[1] = 200 mg q.d. week 0 to 10, to 100 mg q.d. week 10 to 20, week 16
[2] = 200 mg q.d. week 0 to 10, to 100 mg q.d. week 10 to 20, week 20
[3] = 200 mg q.d. week 0 to 10, to placebo week 10 to 20, week 2
[4] = 200 mg q.d. week 0 to 10, to placebo week 10 to 20, week 4
[5] = 200 mg q.d. week 0 to 10, to placebo week 10 to 20, week 6
[6] = 200 mg q.d. week 0 to 10, to placebo week 10 to 20, week 10
[7] = 200 mg q.d. week 0 to 10, to placebo week 10 to 20, week 12
[8] = 200 mg q.d. week 0 to 10, to placebo week 10 to 20, week 16
[9] = 200 mg q.d. week 0 to 10, to placebo week 10 to 20, week 20
[10] = continued 200 mg q.d. (N = 77), week 2
[11] = continued 200 mg q.d. (N = 77), week 4
[12] = continued 200 mg q.d. (N = 77), week 6
[13] = continued 200 mg q.d. (N = 77), week 10
[14] = continued 200 mg q.d. (N = 77), week 12
[15] = continued 200 mg q.d. (N = 77), week 16
[16] = continued 200 mg q.d. (N = 77), week 20
[17] = placebo week 0 to 10, then 100 mg q.d. (N = 22), week 12
[18] = placebo week 0 to 10, then 100 mg q.d. (N = 22), week 16
[19] = placebo week 0 to 10, then 100 mg q.d. (N = 22), week 20
[20] = placebo week 0 to 10, to 100 mg q.d. week 10 to 20, week 12
[21] = placebo week 0 to 10, to 100 mg q.d. week 10 to 20, week 16
[22] = placebo week 0 to 10, to 100 mg q.d. week 10 to 20, week 20

How did the “[LDL] Mean CFB - 20 weeks results” value [1] turn out when `O=C(Nc1nc2cccc(-c3ccc(CN4CCS(=O)(=O)CC4)cc3)n2n1)C1CC1` [Compound 1, cyclopropanecarboxylic acid {5-[4-(1,1-dioxo-thiomorpholin-4-ylmethyl)-phenyl]-[1,2,4]triazolo[1,5-a]pyridin-2yl}-amide] was run?
The value was 2.18%.

And the “[LDL] Median CFB - 20 weeks results” value [1]?
The value was −1.36%.

What about the “[LDL] Mean CFB - 20 weeks results” value [2] of the same molecule?
The value was 2.73%.

And the “[LDL] Median CFB - 20 weeks results” value [2]?
Its value is 1.65%.

What about the “[LDL] Mean CFB - 20 weeks results” value [3] of the same molecule?
Its value is 2.69%.

And the “[LDL] Median CFB - 20 weeks results” value [3]?
Its value is 0.71%.

What about the “[LDL] Mean CFB - 20 weeks results” value [4] of the same molecule?
The value was 1.85%.

What about the “[LDL] Median CFB - 20 weeks results” value [4] of the same molecule?
The value was 2.44%.

What about the “[LDL] Mean CFB - 20 weeks results” value [5] of the same molecule?
The value was 3.72%.

And the “[LDL] Median CFB - 20 weeks results” value [5]?
Its value is 3.51%.

And the “[LDL] Mean CFB - 20 weeks results” value [6]?
Its value is 4.43%.

And the “[LDL] Median CFB - 20 weeks results” value [6]?
Its value is 1.84%.

What about the “[LDL] Mean CFB - 20 weeks results” value [7] of the same molecule?
The value was 4.55%.

And the “[LDL] Median CFB - 20 weeks results” value [7]?
Its value is 6.33%.

What about the “[LDL] Mean CFB - 20 weeks results” value [8] of the same molecule?
Its value is 10.32%.

And the “[LDL] Median CFB - 20 weeks results” value [8]?
Its value is 6.34%.

What about the “[LDL] Mean CFB - 20 weeks results” value [9] of the same molecule?
The value was 6.12%.

What about the “[LDL] Median CFB - 20 weeks results” value [9] of the same molecule?
The value was 5.24%.

What about the “[LDL] Mean CFB - 10 weeks results” value (week 2) of the same molecule?
The value was 2.833%.

And the “[LDL] Median CFB - 10 weeks results” value (week 2)?
The value was −1.469%.

And the “[LDL] Mean CFB - 10 weeks results” value (week 4)?
The value was 1.997%.

What about the “[LDL] Median CFB - 10 weeks results” value (week 4) of the same molecule?
The value was −1.986%.

What about the “[LDL] Mean CFB - 10 weeks results” value (week 6) of the same molecule?
Its value is 1.743%.

And the “[LDL] Median CFB - 10 weeks results” value (week 6)?
Its value is 0.992%.

What about the “[LDL] Mean CFB - 10 weeks results” value (week 10) of the same molecule?
Its value is 10.126%.

What about the “[LDL] Median CFB - 10 weeks results” value (week 10) of the same molecule?
Its value is 6.299%.

And the “[LDL] Mean CFB” value (week 2)?
The value was 0.025 mmol/L.

What about the “[LDL] Mean CFB” value (week 4) of the same molecule?
Its value is -0.030 mmol/L.

And the “[LDL] Mean CFB” value (week 6)?
The value was -0.012 mmol/L.

What about the “[LDL] Mean CFB” value (week 10) of the same molecule?
Its value is 0.150 mmol/L.

What about the “[LDL] Mean CFB - 20 weeks results” value [10] of the same molecule?
The value was 0.04 mmol/L.

And the “[LDL] Median CFB - 10 weeks results 20 weeks results” value [10]?
Its value is -0.05 mmol/L.

And the “[LDL] Mean CFB - 20 weeks results” value [11]?
Its value is -0.05 mmol/L.

And the “[LDL] Median CFB - 10 weeks results 20 weeks results” value [11]?
The value was -0.05 mmol/L.

And the “[LDL] Mean CFB - 20 weeks results” value [12]?
The value was -0.05 mmol/L.

What about the “[LDL] Median CFB - 10 weeks results 20 weeks results” value [12] of the same molecule?
The value was -0.02 mmol/L.

And the “[LDL] Mean CFB - 20 weeks results” value [13]?
The value was 0.20 mmol/L.

And the “[LDL] Median CFB - 10 weeks results 20 weeks results” value [13]?
Its value is 0.18 mmol/L.

What about the “[LDL] Mean CFB - 20 weeks results” value [14] of the same molecule?
The value was 0.14 mmol/L.

What about the “[LDL] Median CFB - 10 weeks results 20 weeks results” value [14] of the same molecule?
The value was 0.15 mmol/L.

And the “[LDL] Mean CFB - 20 weeks results” value [15]?
Its value is 0.21 mmol/L.

What about the “[LDL] Median CFB - 10 weeks results 20 weeks results” value [15] of the same molecule?
The value was 0.19 mmol/L.

What about the “[LDL] Mean CFB - 20 weeks results” value [16] of the same molecule?
Its value is 0.22 mmol/L.

What about the “[LDL] Median CFB - 10 weeks results 20 weeks results” value [16] of the same molecule?
Its value is 0.18 mmol/L.

What about the “[LDL] Mean CFB - 20 weeks results” value [17] of the same molecule?
Its value is 0.09 mmol/L.

And the “[LDL] Median CFB - 10 weeks results 20 weeks results” value [17]?
Its value is 0.07 mmol/L.

And the “[LDL] Mean CFB - 20 weeks results” value [18]?
The value was 0.05 mmol/L.

And the “[LDL] Median CFB - 10 weeks results 20 weeks results” value [18]?
The value was -0.06 mmol/L.

And the “[LDL] Mean CFB - 20 weeks results” value [19]?
The value was 0.06 mmol/L.

And the “[LDL] Median CFB - 10 weeks results 20 weeks results” value [19]?
Its value is 0.03 mmol/L.

And the “[LDL] Mean CFB - 20 weeks results” value [20]?
The value was 4.07%.

And the “[LDL] Median CFB - 20 weeks results” value [20]?
The value was 2.14%.

And the “[LDL] Mean CFB - 20 weeks results” value [21]?
The value was 5.28%.

And the “[LDL] Median CFB - 20 weeks results” value [21]?
Its value is −2.00%.

And the “[LDL] Mean CFB - 20 weeks results” value [22]?
Its value is 7.29%.

And the “[LDL] Median CFB - 20 weeks results” value [22]?
Its value is 1.90%.
